Patent JP2005255641A, “ベンゾフラン誘導体” (Kyowa Hakko Kogyo Co Ltd, priority 2004, dated 2005)

molecular target: T1, recombinant human PDE-IV (HSPDE4A) [組み換えヒトPDE−IV (HSPDE4A)] (Homo sapiens, UniProt P27815); assay: Recombinant human PDE-IV enzyme inhibition test; assay type: biochemical; settings: drug concentration 1 μmol/L; [3H]cAMP 1 μmol/L; 30 °C, 10-30 min; DMSO 1.7%; read-out: enzyme inhibitory activity
T1 construct: made in house; host or cells: Sf9 insect cells
T1 sequence (P27815 whole entry): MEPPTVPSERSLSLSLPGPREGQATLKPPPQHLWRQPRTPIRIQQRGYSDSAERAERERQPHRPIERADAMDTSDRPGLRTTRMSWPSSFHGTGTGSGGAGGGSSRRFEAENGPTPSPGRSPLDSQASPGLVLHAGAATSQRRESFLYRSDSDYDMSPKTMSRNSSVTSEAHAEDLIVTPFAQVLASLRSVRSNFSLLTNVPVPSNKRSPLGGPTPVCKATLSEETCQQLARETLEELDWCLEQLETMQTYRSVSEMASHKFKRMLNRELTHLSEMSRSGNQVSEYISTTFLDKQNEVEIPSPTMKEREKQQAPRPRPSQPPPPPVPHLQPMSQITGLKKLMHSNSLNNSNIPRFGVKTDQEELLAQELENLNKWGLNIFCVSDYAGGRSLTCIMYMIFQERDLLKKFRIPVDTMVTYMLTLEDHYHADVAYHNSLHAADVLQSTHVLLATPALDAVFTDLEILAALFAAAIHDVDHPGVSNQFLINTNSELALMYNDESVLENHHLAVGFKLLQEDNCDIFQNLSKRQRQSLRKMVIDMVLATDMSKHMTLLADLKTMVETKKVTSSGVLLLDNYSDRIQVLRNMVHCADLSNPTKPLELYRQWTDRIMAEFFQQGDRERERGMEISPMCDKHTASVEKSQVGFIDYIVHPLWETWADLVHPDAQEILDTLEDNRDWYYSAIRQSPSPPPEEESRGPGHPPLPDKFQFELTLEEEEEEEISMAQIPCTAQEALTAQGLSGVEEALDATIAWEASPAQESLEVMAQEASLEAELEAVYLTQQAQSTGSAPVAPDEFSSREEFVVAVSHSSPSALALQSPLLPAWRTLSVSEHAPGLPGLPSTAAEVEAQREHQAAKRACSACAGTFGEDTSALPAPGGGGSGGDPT

inhibition | Compound
≥ 50% | CCc1cc2c(o1)c(OC)ccc2[C@]1(C#N)CC[C@@H](C(=O)O)CC1 [化合物101, シス−4−シアノ−4−(2−エチル−7−メトキシベンゾフラン−4−イル)シクロヘキサンカルボン酸]
≥ 50% | COc1ccc([C@]2(C#N)CC[C@@H](C(=O)O)CC2)c2cc(C3(C)CC3)oc12 [化合物103, シス−4−シアノ−4−(7−メトキシ−2−(1−メチルシクロプロピル)ベンゾフラン−4−イル)シクロヘキサンカルボン酸]
≥ 50% | COc1ccc([C@]2(C#N)CC[C@@H](C(=O)O)CC2)c2cc(C3(C(F)(F)F)CC3)oc12 [化合物104, シス−4−シアノ−4−(7−メトキシ−2−(1−トリフルオロメチルシクロプロピル)ベンゾフラン−4−イル)シクロヘキサンカルボン酸]
≥ 50% | N#C[C@]1(c2ccc(OC(F)F)c3oc(C4CC4)cc32)CC[C@H](C(=O)O)CC1 [化合物106, シス−4−シアノ−4−(2−シクロプロピル−7−ジフルオロメトキシベンゾフラン−4−イル)シクロヘキサンカルボン酸, 0.2H2O]
≥ 50% | CC1(c2cc3c(o2)c(OC(F)F)ccc3[C@]2(C#N)CC[C@@H](C(=O)O)CC2)CC1 [化合物107, シス−4−シアノ−4−(7−ジフルオロメトキシ−2−(1−メチルシクロプロピル)ベンゾフラン−4−イル)シクロヘキサンカルボン酸]
≥ 50% | COc1ccc([C@]2(C#N)CC[C@@H](C(=O)O)CC2)c2cc(C(C)O)oc12 (some centres unmarked) [化合物108, シス−4−シアノ−4−(2−(1−ヒドロキシエチル)−7−メトキシベンゾフラン−4−イル)シクロヘキサンカルボン酸]
≥ 50% | COc1ccc([C@]2(C#N)CC[C@@H](C(=O)O)CC2)c2cc(C(C)=O)oc12 [化合物109, シス−4−(2−アセチル−7−メトキシベンゾフラン−4−イル)−4−シアノシクロヘキサンカルボン酸]
≥ 50% | COc1ccc([C@]2(C#N)CC[C@@H](C(=O)O)CC2)c2cc(C(C)(C)O)oc12 [化合物110, シス−4−シアノ−4−(2−(1−ヒドロキシ−1−メチルエチル)−7−メトキシベンゾフラン−4−イル)シクロヘキサンカルボン酸]
≥ 50% | COc1ccc([C@]2(C#N)CC[C@@H](C(=O)O)CC2)c2cc(C(=O)c3ccccc3)oc12 [化合物111, シス−4−(2−ベンゾイル−7−メトキシベンゾフラン−4−イル)−4−シアノシクロヘキサンカルボン酸]
≥ 50% | COc1ccc([C@]2(C#N)CC[C@@H](C(=O)O)CC2)c2cc(C(=O)c3ccncc3)oc12 [化合物112, シス−4−シアノ−4−(2−イソニコチノイル−7−メトキシベンゾフラン−4−イル)シクロヘキサンカルボン酸]
≥ 50% | COc1ccc([C@]2(C#N)CC[C@@H](C(=O)O)CC2)c2cc(C(=O)c3cc[n+]([O-])cc3)oc12 [化合物113, シス−4−シアノ−4−(2−(イソニコチノイル−1−オキシド)−7−メトキシベンゾフラン−4−イル)シクロヘキサンカルボン酸, 0.2H2O]
≥ 50% | COc1ccc([C@]2(C#N)CC[C@@H](C(=O)O)CC2)c2cc(C(=O)N3CCN(C)CC3)oc12 [化合物114, シス−4−シアノ−4−(7−メトキシ−2−(4−メチルピペラジン−1−イルカルボニル)ベンゾフラン−4−イル)シクロヘキサンカルボン酸 塩酸塩]
≥ 50% | COc1ccc([C@]2(C#N)CC[C@@H](C(=O)O)CC2)c2cc(C(=O)N3CCN(CCO)CC3)oc12 [化合物115, シス−4−シアノ−4−(2−(4−(2−ヒドロキシエチル)ピペラジン−1−イルカルボニル)−7−メトキシベンゾフラン−4−イル)シクロヘキサンカルボン酸 塩酸塩]
≥ 50% | COc1ccc([C@]2(C#N)CC[C@@H](C(=O)O)CC2)c2cc(C(=O)N3CCC(N4CCCC4)CC3)oc12 [化合物116, シス−4−シアノ−4−(7−メトキシ−2−(4−(ピロリジン−1−イル)ピペリジノカルボニル)ベンゾフラン−4−イル)シクロヘキサンカルボン酸 塩酸塩]
≥ 50% | COc1ccc([C@]2(C#N)CC[C@@H](C(=O)O)CC2)c2cc(C#N)oc12 [化合物121, シス−4−シアノ−4−(2−シアノ−7−メトキシベンゾフラン−4−イル)シクロヘキサンカルボン酸]
≥ 50% | C=Cc1ccc([C@]2(C#N)CC[C@@H](C(=O)O)CC2)c2cc(C(=O)c3ccccc3)oc12 [化合物122, シス−4−(2−ベンゾイル−7−ビニルベンゾフラン−4−イル)−4−シアノシクロヘキサンカルボン酸, 0.4H2O]
≥ 50% | CCc1ccc([C@]2(C#N)CC[C@@H](C(=O)O)CC2)c2cc(C(=O)c3ccccc3)oc12 [化合物123, シス−4−(2−ベンゾイル−7−エチルベンゾフラン−4−イル)−4−シアノシクロヘキサンカルボン酸]
≥ 50% | COc1ccc([C@]2(C#N)CC[C@@H](C(=O)O)CC2)c2oc(C(=O)c3ccccc3)cc12 [化合物124, シス−4−(2−ベンゾイル−4−メトキシベンゾフラン−7−イル)−4−シアノシクロヘキサンカルボン酸]
≥ 50% | C=Cc1ccc([C@]2(C#N)CC[C@@H](C(=O)O)CC2)c2oc(C(=O)c3ccccc3)cc12 [化合物126, シス−4−(2−ベンゾイル−4−ビニルベンゾフラン−7−イル)−4−シアノシクロヘキサンカルボン酸]
≥ 50% | CCc1ccc([C@]2(C#N)CC[C@@H](C(=O)O)CC2)c2oc(C(=O)c3ccccc3)cc12 [化合物127, シス−4−(2−ベンゾイル−4−エチルベンゾフラン−7−イル)−4−シアノシクロヘキサンカルボン酸]

Compound | inhibition
CCc1cc2c(C3(C#N)CCN(CC(=O)O)CC3)ccc(OC)c2o1 [化合物76, 2−(4−シアノ−4−(2−エチル−7−メトキシベンゾフラン−4−イル)ピペリジン−1−イル)酢酸, 0.3H2O] | ≥ 50%
COc1ccc(C2(C#N)CCN(CC(=O)O)CC2)c2cc(C(C)=O)oc12 [化合物90, 2−(4−(2−アセチル−7−メトキシベンゾフラン−4−イル)−4−シアノピペリジン−1−イル)酢酸] | ≥ 50%
COc1ccc(C2(C#N)CCN(CC(=O)O)CC2)c2cc(C(=O)C(C)C)oc12 [化合物91, 2−(4−シアノ−4−(2−イソブチリル−7−メトキシベンゾフラン−4−イル)ピペリジン−1−イル)酢酸] | ≥ 50%
COc1ccc(C2(C#N)CCN(CC(=O)O)CC2)c2cc(C(=O)c3ccccc3)oc12 [化合物92, 2−(4−(2−ベンゾイル−7−メトキシベンゾフラン−4−イル)−4−シアノピペリジン−1−イル)酢酸] | ≥ 50%
COC(=O)c1cc2c(C3(C#N)CCN(CC(=O)O)CC3)ccc(OC)c2o1 [化合物93, 2−(4−シアノ−4−(7−メトキシ−2−メトキシカルボニルベンゾフラン−4−イル)ピペリジン−1−イル)酢酸] | ≥ 50%
COc1ccc(C2(C#N)CCN(CC(=O)O)CC2)c2cc(C#N)oc12 [化合物99, 2−(4−シアノ−4−(2−シアノ−7−メトキシベンゾフラン−4−イル)ピペリジン−1−イル)酢酸] | ≥ 50%

same assay, conditions: read-out: enzyme inhibitory activity

Compound | inhibition at 1 µM
COc1ccc(C2(C#N)CCN(CC(=O)O)CC2)c2cc(C(C)C)oc12 [化合物77, 2−(4−シアノ−4−(2−イソプロピル−7−メトキシベンゾフラン−4−イル)ピペリジン−1−イル)酢酸 塩酸塩] | ≥ 50%
COc1ccc(C2(C#N)CCN(CC(=O)O)CC2)c2cc(C(C)(C)C)oc12 [化合物78, 2−(4−(2−tert−ブチル−7−メトキシベンゾフラン−4−イル)−4−シアノピペリジン−1−イル)酢酸 塩酸塩] | ≥ 50%
COc1ccc(C2(C#N)CCN(CC(=O)O)CC2)c2cc(CC(C)C)oc12 [化合物79, 2−(4−シアノ−4−(2−イソブチル−7−メトキシベンゾフラン−4−イル)ピペリジン−1−イル)酢酸 塩酸塩] | ≥ 50%
COc1ccc(C2(C#N)CCN(CC(=O)O)CC2)c2cc(CC(C)(C)C)oc12 [化合物80, 2−(4−(7−メトキシ−2−ネオペンチルベンゾフラン−4−イル)−4−シアノピペリジン−1−イル)酢酸 塩酸塩] | ≥ 50%
COc1ccc(C2(C#N)CCN(CC(=O)O)CC2)c2cc(Cc3ccccc3)oc12 [化合物81, 2−(4−(2−ベンジル−7−メトキシベンゾフラン−4−イル)−4−シアノピペリジン−1−イル)酢酸 塩酸塩] | ≥ 50%
COc1ccc(C2(C#N)CCN(CC(=O)O)CC2)c2cc(C3CCC3)oc12 [化合物82, 2−(4−シアノ−4−(2−シクロブチル−7−メトキシベンゾフラン−4−イル)ピペリジン−1−イル)酢酸 塩酸塩] | ≥ 50%
COc1ccc(C2(C#N)CCN(CC(=O)O)CC2)c2cc(C3CC3)oc12 [化合物83, 2−(4−シアノ−4−(2−シクロプロピル−7−メトキシベンゾフラン−4−イル)ピペリジン−1−イル)酢酸 塩酸塩] | ≥ 50%
COc1ccc(C2(C#N)CCN(CC(=O)O)CC2)c2cc(C3CC3C)oc12 (centres unmarked) [化合物84, 2−(4−シアノ−4−(7−メトキシ−2−(2−メチルシクロプロピル)ベンゾフラン−4−イル)ピペリジン−1−イル)酢酸 塩酸塩] | ≥ 50%
COc1ccc(C2(C#N)CCN(CC(=O)O)CC2)c2cc(C3(C)CC3)oc12 [化合物87, 2−(4−シアノ−4−(7−メトキシ−2−(1−メチルシクロプロピル)ベンゾフラン−4−イル)ピペリジン−1−イル)酢酸 塩酸塩] | ≥ 50%
COc1ccc(C2(C#N)CCN(CC(=O)O)CC2)c2cc(C3(c4ccccc4)CC3)oc12 [化合物88, 2−(4−シアノ−4−(7−メトキシ−2−(1−フェニルシクロプロピル)ベンゾフラン−4−イル)ピペリジン−1−イル)酢酸 塩酸塩] | ≥ 50%
N#CC1(c2ccc(OC(F)F)c3oc(C4CC4)cc23)CCN(CC(=O)O)CC1 [化合物89, 2−(4−シアノ−4−(2−シクロプロピル−7−ジフルオロメトキシベンゾフラン−4−イル)ピペリジン−1−イル)酢酸 塩酸塩] | ≥ 50%
COc1ccc(C2(C#N)CCN(CC(=O)O)CC2)c2c3c(oc12)CCCC3 [化合物100, 2−(4−シアノ−4−(6−メトキシ−1,2,3,4−テトラヒドロジベンゾフラン−9−イル)ピペリジン−1−イル)酢酸 塩酸塩] | ≥ 50%
